Patent US20230151025A1, “SUBSTITUTED THIAZOLOPYRIDINES, SALTS THEREOF AND THEIR USE AS HERBICIDALLY ACTIVE SUBSTANCES” (Bayer Aktiengesellschaft, priority 2020, published 2023)

Tests used:
Format in all cases: in vivo
[1] = tested on: Setaria viridis (SETVI); assay: Herbicidal pre-emergence action (A), 1280 g/ha; conditions: visual grading after ca. 3 weeks vs untreated controls
Source text: (§1) ABUTH: Abutilon theophrasti AGSTE: Agrostis tenuis ALOMY: Alopecurus myosuroides AMARE Amaranthus retroflexus DIGSA: Digitaria sanguinalis ECHCG: Echinochloa crus-galli KCHSC: Kochia scoparia LOLRI: Lolium rigidum MATIN: Matricaria inodora POAAN: Poa annua POLCO: Polygonum convolvulus SETVI: Setaria viridis STEME: Stellaria media VERPE: Veronica persica VIOTR: Viola tricolor
(§2) Seeds of mono- and dicotyledonous weed plants were sown in plastic pots (double sowings with one species of mono- and one species of dicotyledonous weed plants per pot), in sandy loam, and covered with soil. The compounds according to the invention, formulated in the form of wettable powders (WP) or as emulsifiable concentrates (EC), were applied to the surface of the covering soil as aqueous suspension or emulsion, with the addition of 0.5% of an additive, at an application rate of 600 l of water per hectare (converted). Following treatment, the pots were placed in a greenhouse and kept under optimum growth conditions for the test plants. The visual grading of the damage to the test plants was carried out after ca. 3 weeks in comparison to untreated controls (herbicidal effect in percent (%): 100% effect=plants have died off, 0% effect=as control plants).
(§3) Tables A1 to A12, below, show the effects of selected compounds of the general formula (I) according to table 1 on various harmful plants and an application rate corresponding to 1280 g/ha obtained by the experimental procedure mentioned above.

[2] = tested on: Amaranthus retroflexus (AMARE); assay: Herbicidal pre-emergence action (A), 1280 g/ha; conditions: visual grading after ca. 3 weeks vs untreated controls
Source text: as §1, §2, §3

[3] = tested on: Abutilon theophrasti (ABUTH); assay: Herbicidal post-emergence action (B), 1280 g/ha; conditions: rated visually after about 3 weeks vs untreated controls
Source text: as §1
(§4) Seeds of mono- and dicotyledonous weed plants were placed in plastic pots in sandy loam soil (doubly sown with in each case one species of mono- or dicotyledonous weed plants per pot), covered with soil and cultivated in a greenhouse under controlled growth conditions. 2 to 3 weeks after sowing, the test plants were treated at the one-leaf stage. The compounds of the invention, formulated in the form of wettable powders (WP) or as emulsion concentrates (EC), were applied onto the green parts of the plants as aqueous suspension or emulsion with addition of 0.5% additive at a water application rate of 600 liters per hectare (converted). After the test plants had been kept in the greenhouse under optimum growth conditions for about 3 weeks, the activity of the preparations was rated visually in comparison to untreated controls. For example, 100% activity=the plants have died, 0% activity=like control plants.
(§5) Tables B1 to B12, below, show the effects of selected compounds of the general formula (I) according to table 1 on various harmful plants and an application rate corresponding to 1280 g/ha obtained by the experimental procedure mentioned above.

[4] = tested on: Amaranthus retroflexus (AMARE); assay: Herbicidal post-emergence action (B), 1280 g/ha; conditions: rated visually after about 3 weeks vs untreated controls
Source text: as §1, §4, §5

[5] = tested on: Poa annua (POAAN); assay: Herbicidal pre-emergence action (A), 1280 g/ha; conditions: visual grading after ca. 3 weeks vs untreated controls, 100% = plants have died off, 0% = as control plants
Source text: as §1, §2, §3

[6] = tested on: Digitaria sanguinalis (DIGSA); assay: Herbicidal pre-emergence action (A), 1280 g/ha; conditions: visual grading after ca. 3 weeks vs untreated controls, 100% = plants have died off, 0% = as control plants
Source text: as §1, §2, §3

[7] = tested on: Kochia scoparia (KCHSC; Bassia scoparia); assay: Herbicidal pre-emergence action (A), 1280 g/ha; conditions: visual grading after ca. 3 weeks vs untreated controls
Source text: as §1, §2, §3

[8] = tested on: Veronica persica (VERPE); assay: Herbicidal post-emergence action (B), 1280 g/ha
Source text: as §1, §4, §5

[9] = tested on: Kochia scoparia (KCHSC; Bassia scoparia); assay: Herbicidal post-emergence action (B), 1280 g/ha
Source text: as §1, §4, §5

[10] = tested on: Echinochloa crus-galli (ECHCG); assay: Herbicidal pre-emergence action (A), 1280 g/ha; conditions: visual grading after ca. 3 weeks vs untreated controls, 100% = plants have died off, 0% = as control plants
Source text: as §1, §2, §3

[11] = tested on: Veronica persica (VERPE); assay: Herbicidal pre-emergence action (A), 1280 g/ha; conditions: visual grading after ca. 3 weeks vs untreated controls
Source text: as §1, §2, §3

[12] = tested on: Lolium rigidum (LOLRI); assay: Herbicidal pre-emergence action (A), 1280 g/ha; conditions: visual grading after ca. 3 weeks vs untreated controls, 100% = plants have died off, 0% = as control plants
Source text: as §1, §2, §3

[13] = tested on: Stellaria media (STEME); assay: Herbicidal pre-emergence action (A), 1280 g/ha; conditions: visual grading after ca. 3 weeks vs untreated controls
Source text: as §1, §2, §3

[14] = tested on: Alopecurus myosuroides (ALOMY); assay: Herbicidal pre-emergence action (A), 1280 g/ha; conditions: visual grading after ca. 3 weeks vs untreated controls, 100% = plants have died off, 0% = as control plants
Source text: as §1, §2, §3

[15] = tested on: Poa annua (POAAN); assay: Herbicidal post-emergence action (B), 1280 g/ha; conditions: rated visually after about 3 weeks vs untreated controls
Source text: as §1, §4, §5

[16] = tested on: Echinochloa crus-galli (ECHCG); assay: Herbicidal post-emergence action (B), 1280 g/ha; conditions: rated visually after about 3 weeks vs untreated controls
Source text: as §1, §4, §5

[17] = tested on: Stellaria media (STEME); assay: Herbicidal post-emergence action (B), 1280 g/ha
Source text: as §1, §4, §5

[18] = tested on: Alopecurus myosuroides (ALOMY); assay: Herbicidal post-emergence action (B), 1280 g/ha; conditions: rated visually after about 3 weeks vs untreated controls
Source text: as §1, §4, §5

[19] = tested on: Matricaria inodora (MATIN); assay: Herbicidal pre-emergence action (A), 1280 g/ha; conditions: visual grading after ca. 3 weeks vs untreated controls
Source text: as §1, §2, §3

SMILES	herbicidal effect SETVI [1] [%]	herbicidal effect AMARE [2] [%]	herbicidal activity ABUTH [3] [%]	herbicidal activity AMARE [4] [%]	POAAN, herbicidal effect in percent (%) [5] [%]	DIGSA, herbicidal effect in percent (%) [6] [%]	herbicidal effect KCHSC [7] [%]	herbicidal effect VERPE [8] [%]	herbicidal effect KCHSC [9] [%]	ECHCG, herbicidal effect in percent (%) [10] [%]	herbicidal effect VERPE [11] [%]	LOLRI, herbicidal effect in percent (%) [12] [%]	herbicidal effect STEME [13] [%]	ALOMY, herbicidal effect in percent (%) [14] [%]	herbicidal activity POAAN [15] [%]	herbicidal activity ECHCG [16] [%]	herbicidal effect STEME [17] [%]	herbicidal activity ALOMY [18] [%]	herbicidal effect MATIN [19] [%]
N#Cc1nc2nc(-c3ccccc3F)c(Br)cc2s1 [Example I-070, 6-bromo-5-(2-fluorophenyl)thiazolo[4,5-b]pyridine-2-carbonitrile]	100	100	90	100	–	–	–	–	–	–	–	–	–	–	–	–	–	–	–
CCc1cc2sc(S(C)(=O)=O)nc2nc1-c1ccccc1F [Example I-059]	100	–	100	100	100	100	90	100	90	–	–	–	–	–	–	–	–	–	–
Cc1cc2sc(S)nc2nc1-c1ccccc1Cl [Example I-169]	90	90	100	90	100	–	90	90	90	90	–	–	–	–	–	–	–	–	–
Cc1sccc1-c1ccc2scnc2n1 [Example I-133]	100	90	90	90	90	–	90	–	–	100	90	100	90	100	100	90	–	–	–
COC(=O)c1nc2nc(-c3ccccc3F)c(Br)cc2s1 [Example I-054, methyl 6-bromo-5-(2-fluorophenyl)thiazolo[4,5-b]pyridine-2-carboxylate]	–	–	90	100	100	–	–	90	90	–	–	–	–	–	–	–	–	–	–
Cc1c(Br)c(-c2ccccc2F)nc2ncsc12 [Example I-186]	–	–	90	100	–	–	–	90	–	–	–	–	–	–	–	–	90	–	–
Cc1cc2scnc2nc1-c1sc(Br)cc1C [Example I-198]	100	–	–	–	100	–	–	100	90	100	90	90	90	100	–	–	–	90	–
Fc1ccccc1-c1nc2nc(Cl)sc2cc1Br [Example I-053, 6-bromo-2-chloro-5-(2-fluorophenyl)thiazolo[4,5-b]pyridine]	–	–	90	–	100	100	90	–	90	–	–	–	100	–	–	–	100	100	–
N#CCc1nc2nc(-c3ccccc3F)c(Br)cc2s1 [Example I-071]	90	90	–	90	100	–	90	90	90	100	90	100	90	–	–	–	90	90	–
Cc1cc2sc([S+](C)[O-])nc2nc1-c1ccccc1F (centres unmarked) [Example I-104]	100	90	–	90	100	100	100	100	100	–	90	–	90	–	–	–	–	–	90
CCOC(=O)C(C#N)c1nc2nc(-c3ccccc3F)c(Br)cc2s1 (centres unmarked) [Example I-086]	–	–	–	100	90	–	–	–	90	–	–	–	–	90	–	–	–	100	–
Cc1cc2sc(S)nc2nc1-c1ccccc1F [Example I-155]	100	90	–	100	100	90	90	90	100	100	90	–	–	–	–	–	–	–	–
Cc1cscc1-c1nc2ncsc2cc1Br [Example I-141]	100	90	–	90	100	–	–	90	90	100	90	–	90	100	–	90	–	–	90
Cc1cc(C)c(-c2nc3ncsc3cc2C)s1 [Example I-195]	100	–	–	–	100	–	90	–	90	100	90	100	90	–	100	–	–	100	90
Cc1cc2scnc2nc1-c1cccnc1C [Example I-130]	100	90	90	–	100	–	–	90	90	–	–	–	–	–	–	–	–	–	–
Cc1ccccc1-c1nc2ncsc2cc1Cl [Example I-083]	100	–	–	100	100	100	–	90	90	100	100	100	100	100	–	–	100	–	–
CCOc1nc2nc(-c3ccccc3C)c(CC)cc2s1 [Example I-055]	100	–	–	–	100	–	100	–	–	100	–	90	90	–	100	90	–	–	–
